Biological target: T1, human GPR120 (Homo sapiens, UniProt Q5NUL3)
T1 construct: Flag (DYKDDDDK) (N); host or cells: HEK293 cells co-expressing Gqi5
T1 sequence (Q5NUL3 1-361): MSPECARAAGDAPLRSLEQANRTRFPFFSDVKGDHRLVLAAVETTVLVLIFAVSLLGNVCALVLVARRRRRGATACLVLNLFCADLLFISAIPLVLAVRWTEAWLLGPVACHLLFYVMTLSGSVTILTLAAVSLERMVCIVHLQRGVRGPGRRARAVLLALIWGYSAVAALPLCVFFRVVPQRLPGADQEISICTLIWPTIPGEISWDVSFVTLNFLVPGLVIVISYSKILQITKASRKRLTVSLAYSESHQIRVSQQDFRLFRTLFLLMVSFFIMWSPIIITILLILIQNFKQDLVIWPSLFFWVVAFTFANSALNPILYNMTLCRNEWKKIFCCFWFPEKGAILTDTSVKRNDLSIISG
Assay: Intracellular Ca2+ assay (FLIPR Calcium 4, Flexstation) in human GPR120 stable cell line
Type: cell-based
Conditions: for % Activity (Ex. 25 Reference Compound): % activity at 2.5 μM compared to the maximal activity of the compound of Example 25 at 2.5 μM, HEK293 cells co-expressing Gqi5; for EC50: human GPR120 stably expressing cells, eight concentrations from 0.00001 to 20 μM
Method: Human GPR120 stable cell line was purchased from Multispan Inc (26219 Eden Landing Road, Hayward, Calif. 94545). This GPR120 cell line was generated in HEK293 cells co-expressing Gqi5. In this cell line, the Flag epitope tag (DYKDDDDK) was fused to the amino terminus of human GPR120 protein.
The concentration of intracellular Ca^2+ was measured as described below. Human GPR120 cells were plated in 96 well plates (Poly-D-Lysine coated black/clear Plate, Greiner Bio-One) at 70,000 cells per well and cultured overnight in conditions of 37° C. and 5% CO2. A Ca^2+ assay dye stock solution was prepared by adding 10 mL of assay buffer (HBSS/20 mM HEPES, pH 7.4) to FLIPR Calcium 4 Assay Bulk Kit (Molecular Devices). The 10 mL of Ca^2+ assay dye solution was prepared by further diluting 0.5 mL of Ca^2+ assay dye stock solution with 10 mL of assay buffer. The medium of the cells was removed and immediately 100 μL of the Ca^2+ assay dye solution was dispensed into each well followed by incubation at 37° C. and 5% CO2 for 50 minutes to incorporate the Ca^2+ dye into the cells. The cell plate was then placed in the Flexstation (Molecular Devices) for 20 minutes at 37° C. Compounds were dissolved in 100% DMSO and diluted to desired concentrations with assay buffer and placed in the Flexstation simultaneously with the cell plate for 20 minute incubation at 37° C. prior to reading. Fluorescence intensity was measured immediately following compound addition (25 μL/well) on the Flexstation at an excitation wavelength of 485 nm and an emission wavelength of 525 with 515 nm auto cutoff. The resulting increase in fluorescence intensities corresponds to increases in intracellular Ca^2+ levels.
Compounds were dissolved in 100% DMSO to a concentration of 20 mM to provide stock solutions. To determine activity against human GPR120, compounds were added with human GPR120 stably expressing cells (described above), at eight desired concentrations ranging from 0.00001 to 20 μM, in 96 well plates and fluorescence intensities were measured for 90 seconds with 2-second intervals. An EC50 value (concentration of the GPR120 agonist where 50% of the agonist's maximal activity is observed) was calculated using the changes (Max-Min) of fluorescence intensity.
To determine percent activity for a tested compound, the fluorescence intensity value obtained at a particular concentration were compared to the maximal fluorescence intensity value obtained for reference compound GW9508 (4-[[(3-phenoxyphenyl)methyl]amino]benzene propanoic acid; British Journal of Pharmacology 2006 148, 619-628) or the compound of Example 25. When GW9508 was used as the reference compound, the maximal activity of GW9508 at 6.7 μM was designated as 100% activity. When the compound of Example 25 was used as the reference compound, the maximal activity of the compound of Example 25 at 2.5 μM was designated as 100% activity. Typically, the GW9508 activity reached a maximum at a concentration of approximately 6.7 μM and typically the compound of Example 25 reached a maximum activity at approximately 2.5 μM.

% Activity (Ex. 25 Reference Compound) | EC50 | SMILES
151.78% | – | CC(C)Oc1cc(OCc2cc(F)cc3c2OC(C)(C)C3)ccc1CCC(=O)O [Example 115, 3-(4-((5-fluoro-2,2-dimethyl-2,3-dihydrobenzofuran-7-yl)methoxy)-2-isopropoxyphenyl)propanoic acid]
145.6% | – | CC(C)Oc1cc(OCc2cc(Cl)cc3c2OC(C)(C)C3)ccc1CCC(=O)O [Example 116, 3-(4-((5-chloro-2,2-dimethyl-2,3-dihydrobenzofuran-7-yl)methoxy)-2-isopropoxyphenyl)propanoic acid]
104.49% | – | Cc1cc2cc(Cl)cc(COc3ccc(CC(C)C(=O)O)cc3F)c2o1 (centres unmarked) [Example 120, 3-(4-((5-chloro-2-methylbenzofuran-7-yl)methoxy)-3-fluorophenyl)-2-methylpropanoic acid]
3.58% | – | CN(C)Cc1cc(OCc2cc(F)cc3c2OC(C)(C)C3)ccc1CCC(=O)O [Example 122, 3-(2-((dimethylamino)methyl)-4-((5-fluoro-2,2-dimethyl-2,3-dihydrobenzofuran-7-yl)methoxy)phenyl)propanoic acid]
47.01% | – | CC(=O)Nc1cc(COc2ccc(CC(C)C(=O)O)cc2)c2c(c1)CC(C)(C)O2 (centres unmarked) [Example 123, 3-(4-((5-acetamido-2,2-dimethyl-2,3-dihydrobenzofuran-7-yl)methoxy)phenyl)-2-methylpropanoic acid]
131.64% | – | CC(Cc1ccc(OCc2cc(OC(F)(F)F)cc3c2OC(C)(C)C3)cc1)C(=O)O (centres unmarked) [Example 124, 3-(4-((2,2-dimethyl-5-(trifluoromethoxy)-2,3-dihydrobenzofuran-7-yl)methoxy)phenyl)-2-methylpropanoic acid]
32.57% | 1 to 10 µM | Cc1cc2c(OCc3cc(F)cc4c3OC(C)(C)C4)ccc(CCC(=O)O)c2o1 [Example 125, 3-(4-((5-fluoro-2,2-dimethyl-2,3-dihydrobenzofuran-7-yl)methoxy)-2-methylbenzofuran-7-yl)propanoic acid]
47.02% | 1 to 10 µM | CC(=O)NCCOC(=O)C(C)Cc1ccc(OCc2cc(Cl)cc3c2OC(C)(C)C3)c(C(F)(F)F)c1 (centres unmarked) [Example 126, 2-acetamidoethyl 3-(4-((5-chloro-2,2-dimethyl-2,3-dihydrobenzofuran-7-yl)methoxy)-3-(trifluoromethyl)phenyl)-2-methylpropanoate]
152.93% | – | CC1(C)Cc2cc(Cl)cc(CNc3ccc(CCC(=O)O)cc3)c2O1 [Example 127]
103.85% | – | CC(Cc1ccc(OCc2cc(Cl)cc3c2OC(C)(C)C3O)cc1)C(=O)O (centres unmarked) [Example 130, 3-(4-((5-chloro-3-hydroxy-2,2-dimethyl-2,3-dihydrobenzofuran-7-yl)methoxy)phenyl)-2-methylpropanoic acid]
103.4% | – | CC1(C)Cc2cc(F)cc(COc3ccc(CC(=O)O)cc3)c2O1 [Example 133, 2-(4-((5-fluoro-2,2-dimethyl-2,3-dihydrobenzofuran-7-yl)methoxy)phenyl)acetic acid]
151.44% | – | CCc1cc(OCc2cc(F)cc3c2OC(C)(C)C3)ccc1CCC(=O)O [Example 134, 3-(2-ethyl-4-((5-fluoro-2,2-dimethyl-2,3-dihydrobenzofuran-7-yl)methoxy)phenyl)propanoic acid]
140.51% | – | CC1(C)Cc2cc(F)cc(COc3ccc(CCC(=O)O)c(OC(F)(F)F)c3)c2O1 [Example 136, 3-(4-((5-fluoro-2,2-dimethyl-2,3-dihydrobenzofuran-7-yl)methoxy)-2-(trifluoromethoxy)phenyl)propanoic acid]
146.18% | – | CCc1cc(OCc2cccc3c2CC(C)(C)O3)ccc1CCC(=O)O [Example 140, 3-(4-((2,2-dimethyl-2,3-dihydrobenzofuran-4-yl)methoxy)-2-ethylphenyl)propanoic acid]
143.3% | – | C[C@H](Cc1ccc(OCc2cc(Cl)cc3c2OC(C)(C)C3)c(F)c1)C(=O)O [Example 141, (R)-3-(4-((5-chloro-2,2-dimethyl-2,3-dihydrobenzofuran-7-yl)methoxy)-3-fluorophenyl)-2-methylpropanoic acid]

More lines, now with the values behind:

SMILES | % Activity (Ex. 25 Reference Compound) | EC50
CC(Cc1ccc(OCc2ccc(F)c3c2CC(C)(C)O3)cc1)C(=O)O (centres unmarked) [Example 91, 3-(4-((7-fluoro-2,2-dimethyl-2,3-dihydrobenzofuran-4-yl)methoxy)phenyl)-2-methylpropanoic acid] | 121.29% | 1 to 10 µM
CC1(C)Cc2c(COc3ccc4c(c3)CCC4CC(=O)O)ccc(F)c2O1 (centres unmarked) [Example 94, 2-(5-((7-fluoro-2,2-dimethyl-2,3-dihydrobenzofuran-4-yl)methoxy)-2,3-dihydro-1H-inden-1-yl)acetic acid] | 98.45% | –
CC(Cc1ccc(OCc2c(F)ccc3c2CC(C)(C)O3)cc1)C(=O)O (centres unmarked) [Example 96, 3-(4-((5-fluoro-2,2-dimethyl-2,3-dihydrobenzofuran-4-yl)methoxy)phenyl)-2-methylpropanoic acid] | 124.82% | –
CC1(C)Cc2c(ccc(F)c2COc2c(F)cc(C3CC3C(=O)O)cc2F)O1 (centres unmarked) [Example 99, 2-(3,5-difluoro-4-((5-fluoro-2,2-dimethyl-2,3-dihydrobenzofuran-4-yl)methoxy)phenyl)cyclopropanecarboxylic acid] | 101.53% | –
Cc1cc(OCC(=O)O)ccc1OCc1cc(Cl)cc2c1OC(C)(C)C2 [Example 103, 2-(4-((5-chloro-2,2-dimethyl-2,3-dihydrobenzofuran-7-yl)methoxy)-3-methylphenoxy)acetic acid] | 98.96% | –
CC(CC(=O)O)c1cc(F)c(OCc2cc(Cl)cc3c2OC(C)(C)C3)c(F)c1 (centres unmarked) [Example 106, 3-(4-((5-chloro-2,2-dimethyl-2,3-dihydrobenzofuran-7-yl)methoxy)-3,5-difluorophenyl)butanoic acid] | 154.51% | –
COc1cc(COc2ccc(CC(C)C(=O)O)cc2)c2c(c1)CC(C)(C)O2 (centres unmarked) [Example 108, 3-(4-((5-methoxy-2,2-dimethyl-2,3-dihydrobenzofuran-7-yl)methoxy)phenyl)-2-methylpropanoic acid] | 143.85% | –
CC(Cc1cc(F)c(OCc2cc(Cl)cc3c2OC(C)C3(C)C)c(F)c1)C(=O)O (centres unmarked) [Example 109, 3-(4-((5-chloro-2,3,3-trimethyl-2,3-dihydrobenzofuran-7-yl)methoxy)-3,5-difluorophenyl)-2-methylpropanoic acid] | 72.36% | –
CC(Cc1cc(F)c(OCc2cc(OCc3ccccc3)cc3c2OC(C)(C)C3)c(F)c1)C(=O)O (centres unmarked) [Example 111, 3-(4-((5-(benzyloxy)-2,2-dimethyl-2,3-dihydrobenzofuran-7-yl)methoxy)-3,5-difluorophenyl)-2-methylpropanoic acid] | 51.55% | –
CC1(C)Cc2cc(Cl)cc(COc3ccc4c(c3)CC(C(=O)O)C4)c2O1 (centres unmarked) [Example 112, 5-((5-chloro-2,2-dimethyl-2,3-dihydrobenzofuran-7-yl)methoxy)-2,3-dihydro-1H-indene-2-carboxylic acid] | 115.42% | –
CC1(C)Cc2cc(F)cc(COc3ccc4cc(C(=O)O)ccc4c3)c2O1 [Example 114, 6-((5-fluoro-2,2-dimethyl-2,3-dihydrobenzofuran-7-yl)methoxy)-2-naphthoic acid] | 123.58% | –

Reference: patent US8598374B2, “GPR120 receptor agonists and uses thereof” (Metabolex, Inc, priority 2008, dated 2013)
